Data as given in patent US9776962B2, “Aromatic compounds with GPR40 agonistic activity” (TAKEDA PHARMACEUTICAL COMPANY LIMITED, priority 2013, dated 2017).

Biological target: T1, human GPR40 (Homo sapiens, UniProt O14842)
T1 construct: expressed in transfected cells
Assay: Evaluation of human GPR40 agonist activity with increase in intracellular Ca2+ concentration as an index (FLIPR)
Assay type: cell-based
Details: test compound 1 μM; CHO(dhfr−) cells stably expressing human GPR40; 100% = 10 μM compound of Example 153, 0% = DMSO
How it was run: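 CHO(dhfr−) cells stably expressing full-length human GPR40 were loaded with Ca2+ probe for 1 h at room temperature, then given test compound at 1 μM final. Fluorescence was followed on FLIPR, with activity scaled to a reference agonist at 10 μM (100%) and DMSO (0%).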

T1 sequence (O14842 whole entry): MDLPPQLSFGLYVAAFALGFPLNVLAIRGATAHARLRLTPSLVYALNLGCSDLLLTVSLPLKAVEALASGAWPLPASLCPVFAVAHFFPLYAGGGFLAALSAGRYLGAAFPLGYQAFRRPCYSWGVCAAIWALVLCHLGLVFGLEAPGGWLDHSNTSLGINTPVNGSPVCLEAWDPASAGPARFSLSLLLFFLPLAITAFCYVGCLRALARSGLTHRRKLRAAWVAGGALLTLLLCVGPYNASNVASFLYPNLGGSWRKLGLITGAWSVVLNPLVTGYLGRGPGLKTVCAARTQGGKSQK

SMILES	activation at 1 µM [%]	Activity (human GPR40 agonist activity) [%]
COc1ccc(C(=O)N(CC2(F)CC2)c2ccccc2)c(N2CCC(COc3cc(C(CC(=O)O)C4CC4)ccn3)CC2)c1 (stereo not shown) [Example 189, 3-cyclopropyl-3-(2-((1-(2-(((1-fluorocyclopropyl)methyl)(phenyl)carbamoyl)-5-methoxyphenyl)piperidin-4-yl)methoxy)pyridin-4-yl)propanoic acid]	89	
COc1cc(N2CCC(COc3cc(C(CC(=O)O)C4CC4)ccn3)CC2)c(C(=O)N(CC(C)(C)C)c2cccc(C)n2)cc1F (stereo not shown) [Example 250, 3-cyclopropyl-3-(2-((1-(2-((2,2-dimethylpropyl)(6-methylpyridin-2-yl)carbamoyl)-4-fluoro-5-methoxyphenyl)piperidin-4-yl)methoxy)pyridin-4-yl)propanoic acid]	91	
COc1ccc(C(=O)N(c2ccccn2)C2CCN(CC(F)(F)F)CC2)c(N2CCC(COc3cc(C(CC(=O)O)C4CC4)ccn3)CC2)c1 (stereo not shown) [Example 191, 3-cyclopropyl-3-(2-((1-(5-methoxy-2-(pyridin-2-yl(1-(2,2,2-trifluoroethyl)piperidin-4-yl)carbamoyl)phenyl)piperidin-4-yl)methoxy)pyridin-4-yl)propanoic acid]		86
CCc1ccc(C(=O)N(CC(C)(C)C)c2ccccn2)c(N2CCC(COc3cccc(C(CC(=O)O)C4CC4)c3)CC2)n1 (stereo not shown) [Example 60, 3-cyclopropyl-3-(3-((1-(3-((2,2-dimethylpropyl)(pyridin-2-yl)carbamoyl)-6-ethylpyridin-2-yl)piperidin-4-yl)methoxy)phenyl)propanoic acid]	52	
COc1ccc(C(=O)N(CC(F)(F)C(F)(F)F)c2ncccn2)c(N2CCC(COc3cc(C(CC(=O)O)C4CC4)ccn3)CC2)c1 (stereo not shown) [Example 170, 3-cyclopropyl-3-(2-((1-(5-methoxy-2-((2,2,3,3,3-pentafluoropropyl)(pyrimidin-2-yl)carbamoyl)phenyl)piperidin-4-yl)methoxy)pyridin-4-yl)propanoic acid]	104	
COc1cc(N2CCC(COc3cc(C(CC(=O)O)C4CC4)ccn3)CC2)c(C(=O)N(CC(C)(C)C)c2cc(C)nc(C)n2)cn1 (stereo not shown) [Example 286, 3-cyclopropyl-3-(2-((1-(5-((2,2-dimethylpropyl) (2,6-dimethylpyrimidin-4-yl)carbamoyl)-2-methoxypyridin-4-yl)piperidin-4-yl)methoxy)pyridin-4-yl)propanoic acid]	107	
COc1ccc(C(=O)N(CC(F)(F)F)c2ccnc(C)n2)c(N2CCC(COc3cc(C(CC(=O)O)C4CC4)ccn3)CC2)c1 (stereo not shown) [Example 239, 3-cyclopropyl-3-(2-((1-(5-methoxy-2-((2-methyl-pyrimidin-4-yl) (2,2,2-trifluoroethyl)carbamoyl)-phenyl)piperidin-4-yl)methoxy)pyridin-4-yl)propanoic acid]	100	
CCc1ccc(C(=O)N(C)c2ncco2)c(N2CCC(COc3cccc(C(CC(=O)O)C4CC4)c3)CC2)c1 (stereo not shown) [Example 57, 3-cyclopropyl-3-(3-((1-(5-ethyl-2-(methyl(1,3-oxazol-2-yl)carbamoyl)phenyl)piperidin-4-yl)methoxy)phenyl)propanoic acid]	58	
COc1ccc(C(=O)N(CC(C)(C)C)c2ccccn2)c(N2CC[C@H](COc3cccc(C(CC(=O)O)C4CC4)c3)[C@@H](C)C2)c1 (stereo partly drawn) [Example 279, (3S)-cyclopropyl-3-(3-(((3R,4S)-1-(2-((2,2-dimethylpropyl) (pyridin-2-yl)carbamoyl)-5-methoxyphenyl)-3-methylpiperidin-4-yl)methoxy)phenyl)-propanoic acid]	92	
COc1ccc(C(=O)N(CC(C)(C)C)c2ccccn2)c(N2CC[C@@H](COc3cccc(C(CC(=O)O)C4CC4)c3)[C@@H](C)C2)c1 (stereo partly drawn) [Example 280, (3S)-cyclopropyl-3-(3-(((3R,4R)-1-(2-((2,2-dimethylpropyl) (pyridin-2-yl)carbamoyl)-5-methoxyphenyl)-3-methylpiperidin-4-yl)methoxy)phenyl)-propanoic acid]	6	
COc1ccc(C(=O)N(CC(C)(C)C)c2nc(C)cc(C)n2)c(N2CCC(COc3cc(C(CC(=O)O)C4CC4)ccn3)CC2)c1 (stereo not shown) [Example 174, 3-cyclopropyl-3-(2-((1-(2-((2,2-dimethylpropyl)(4,6-dimethylpyrimidin-2-yl)carbamoyl)-5-methoxyphenyl)piperidin-4-yl)methoxy)pyridin-4-yl)propanoic acid]	104	
Cc1cccc(N(CC(C)(C)C)C(=O)c2ccc(S(C)(=O)=O)cc2N2CCC(COc3cc(C(CC(=O)O)C4CC4)ccn3)CC2)n1 (stereo not shown) [Example 264, 3-cyclopropyl-3-(2-((1-(2-((2,2-dimethylpropyl)(6-methylpyridin-2-yl)carbamoyl)-5-(methylsulfonyl)phenyl)piperidin-4-yl)methoxy)pyridin-4-yl)propanoic acid]	52	
CCc1ccc(C(=O)N(CC(C)(C)C)c2ccccn2)c(N2CCC(COc3cccc(C(CC(=O)O)C4CC4)c3)CC2)c1 (stereo not shown) [Example 56, 3-cyclopropyl-3-(3-((1-(2-((2,2-dimethylpropyl)(pyridin-2-yl)carbamoyl)-5-ethylphenyl)piperidin-4-yl)methoxy)phenyl)propanoic acid]	83	
COc1ccc(C(=O)N(CC2CC2)c2cc(C)ccn2)c(N2CCC(COc3cc(C(CC(=O)O)C4CC4)ccn3)CC2)c1 (stereo not shown) [Example 125, 3-cyclopropyl-3-(2-((1-(2-((cyclopropylmethyl)(4-methylpyridin-2-yl)carbamoyl)-5-methoxyphenyl)piperidin-4-yl)methoxy)pyridin-4-yl)propanoic acid]	95	
COc1ncc(C(=O)N(CC(C)(C)C)c2cccc(C)n2)c(N2CCC(COc3cc(C(CC(=O)O)C4CC4)ccn3)CC2)n1 (stereo not shown) [Example 287, 3-cyclopropyl-3-(2-((1-(5-((2,2-dimethylpropyl) (6-methylpyridin-2-yl)carbamoyl)-2-methoxypyrimidin-4-yl)piperidin-4-yl)methoxy)pyridin-4-yl)propanoic acid]	82	
COc1ccc(C(=O)N(CC(F)(F)F)c2cc(C)nc(C)n2)c(N2CCC(COc3cc(C(CC(=O)O)C4CC4)ccn3)CC2)c1 (stereo not shown) [Example 238, 3-cyclopropyl-3-(2-((1-(2-((2,6-dimethylpyrimidin-4-yl) (2,2,2-trifluoroethyl)-carbamoyl)-5-methoxyphenyl)piperidin-4-yl)methoxy)pyridin-4-yl)propanoic acid]	101	
COc1ccc(C(=O)N(CC(F)(F)F)c2ccnc(C)c2)c(N2CCC(COc3cc(C(CC(=O)O)C4CC4)ccn3)CC2)c1 (stereo not shown) [Example 163, 3-cyclopropyl-3-(2-((1-(5-methoxy-2-((2-methylpyridin-4-yl)(2,2,2-trifluoroethyl)carbamoyl)phenyl)piperidin-4-yl)methoxy)pyridin-4-yl)propanoic acid]	89	
COc1ccc(C(=O)N(CCC(C)C)c2ccccn2)c(N2CCC(COc3cc(C(CC(=O)O)C4CC4)ccn3)CC2)c1 (stereo not shown) [Example 159, 3-cyclopropyl-3-(2-((1-(5-methoxy-2-((3-methylbutyl)(pyridin-2-yl)carbamoyl)phenyl)piperidin-4-yl)methoxy)pyridin-4-yl)propanoic acid]	103	
COc1ccc(C(=O)N(CC(C)C)c2ccccc2)c(N2CCC(COc3cc(C(CC(=O)O)C4CC4)ccn3)CC2)c1 (stereo not shown) [Example 133, 3-cyclopropyl-3-(2-((1-(5-methoxy-2-((2-methylpropyl)(phenyl)carbamoyl)phenyl)piperidin-4-yl)methoxy)pyridin-4-yl)propanoic acid]	98	
COc1ccc(C(=O)N(CC(F)F)c2nccc(C)n2)c(N2CCC(COc3cc(C(CC(=O)O)C4CC4)ccn3)CC2)c1 (stereo not shown) [Example 172, 3-cyclopropyl-3-(2-((1-(2-((2,2-difluoroethyl)(4-methylpyrimidin-2-yl)carbamoyl)-5-methoxyphenyl)piperidin-4-yl)methoxy)pyridin-4-yl)propanoic acid]	97	
Cc1cccc(N(CC(C)(C)C)C(=O)c2ccc(OC(F)F)cc2N2CCC(COc3cc(C(CC(=O)O)C4CC4)ccn3)CC2)n1 (stereo not shown) [Example 267, 3-cyclopropyl-3-(2-((1-(5-(difluoromethoxy)-2-((2,2-dimethylpropyl)(6-methylpyridin-2-yl)carbamoyl)phenyl)piperidin-4-yl)methoxy)pyridin-4-yl)propanoic acid]	96	
COc1ccc(C(=O)N(CC(C)(C)C)C2CCCC2)c(N2CCC(COc3cc(C(CC(=O)O)C4CC4)ccn3)CC2)c1 (stereo not shown) [Example 198, 3-(2-((1-(2-(cyclopentyl(2,2-dimethylpropyl)carbamoyl)-5-methoxyphenyl)piperidin-4-yl)methoxy)pyridin-4-yl)-3-cyclopropylpropanoic acid]	94	
COc1ccc(C(=O)N(CC(C)(C)C)c2cccnn2)c(N2CCC(COc3cc(C(CC(=O)O)C4CC4)ccn3)CC2)c1 (stereo not shown) [Example 179, 3-cyclopropyl-3-(2-((1-(2-((2,2-dimethylpropyl)(pyridazin-3-yl)carbamoyl)-5-methoxyphenyl)piperidin-4-yl)methoxy)pyridin-4-yl)propanoic acid]	84	
COc1ccc(C(=O)N(c2ccccn2)C2CC(F)(F)C2)c(N2CCC(COc3cc(C(CC(=O)O)C4CC4)ccn3)CC2)c1 (stereo not shown) [Example 165, 3-cyclopropyl-3-(2-((1-(2-((3,3-difluorocyclobutyl)(pyridin-2-yl)carbamoyl)-5-methoxyphenyl)piperidin-4-yl)methoxy)pyridin-4-yl)propanoic acid]	97	
COc1cc(N2CCC(COc3cc(C(CC(=O)O)C4CC4)ccn3)CC2)c(C(=O)N(CC2CC2)c2cc(C)cc(C)n2)cn1 (stereo not shown) [Example 285, 3-cyclopropyl-3-(2-((1-(5-((cyclopropylmethyl) (4,6-dimethylpyridin-2-yl)carbamoyl)-2-methoxypyridin-4-yl)piperidin-4-yl)methoxy)pyridin-4-yl)propanoic acid]	99	
